Assay results taken from PubChem BioAssay AID1918995 (Molecular Pharmacology Branch, DTP, NCI, 2023).
Several values for one entry are separate records, joined by “and”; a condition that tells them apart may be missing. Equal entries are not always repeated.

System: 324938-238-R-J1-PDC complex spheroid growth, % test/control
Test: Anticancer human tumor 324938-238-R-J1-PDC patient-derived bladder carcinoma cell line growth inhibition [AhR]
Conditions: for IC50: curve of first compound; for viability, T/C: stronger effect = lower value
Outline: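 Agents were dosed in half-log steps down from roughly clinical Cmax, or from 10 microM where Cmax was unknown, alone and with AhR antagonists. Read-out: percent test/control growth of tumor spheroids containing HUVEC and MSC stromal cells.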
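Note: spheroids exposed to agents for seven days before viability read.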

COc1cc(Nc2ncc3c(n2)-c2ccc(Cl)cc2C(c2c(F)cccc2OC)=NC3)ccc1C(=O)O + Cc1cncc(-c2nc(NCCc3c[nH]c4ccccc34)c3ncn(C(C)C)c3n2)c1
IC50 (second compound 0.1 µM): > 10000 nM | IC50 (second compound 0.316 µM): > 10000 nM | IC50 (second compound 1 µM): > 10000 nM | IC50 (second compound 3.16 µM): > 10000 nM | IC50 (second compound 10 µM): < 31.6 nM | viability, T/C (second compound 0.1 µM, first compound 0.0316 µM): 116% | viability, T/C (second compound 0.1 µM, first compound 0.1 µM): 130% | viability, T/C (second compound 0.1 µM, first compound 0.316 µM): 149% | viability, T/C (second compound 0.1 µM, first compound 1 µM): 91.1% | viability, T/C (second compound 0.1 µM, first compound 3.16 µM): 127% | viability, T/C (second compound 0.1 µM, first compound 10 µM): 108% | viability, T/C (second compound 0.316 µM, first compound 0.0316 µM): 91.2% | viability, T/C (second compound 0.316 µM, first compound 0.1 µM): 137% | viability, T/C (second compound 0.316 µM, first compound 0.316 µM): 104% | viability, T/C (second compound 0.316 µM, first compound 1 µM): 87.1% | viability, T/C (second compound 0.316 µM, first compound 3.16 µM): 93.4% | viability, T/C (second compound 0.316 µM, first compound 10 µM): 65% | viability, T/C (second compound 1 µM, first compound 0.0316 µM): 88.9% | viability, T/C (second compound 1 µM, first compound 0.1 µM): 127% | viability, T/C (second compound 1 µM, first compound 0.316 µM): 98.2% | viability, T/C (second compound 1 µM, first compound 1 µM): 107% | viability, T/C (second compound 1 µM, first compound 3.16 µM): 76% | viability, T/C (second compound 1 µM, first compound 10 µM): 80.4% | viability, T/C (second compound 3.16 µM, first compound 0.0316 µM): 97.5% | viability, T/C (second compound 3.16 µM, first compound 0.1 µM): 131% | viability, T/C (second compound 3.16 µM, first compound 0.316 µM): 121% | viability, T/C (second compound 3.16 µM, first compound 1 µM): 96.2% | viability, T/C (second compound 3.16 µM, first compound 3.16 µM): 82.7% | viability, T/C (second compound 3.16 µM, first compound 10 µM): 84.5% | viability, T/C (second compound 10 µM, first compound 0.0316 µM): 17.1% | viability, T/C (second compound 10 µM, first compound 0.1 µM): 14.8% | viability, T/C (second compound 10 µM, first compound 0.316 µM): 18.8% | viability, T/C (second compound 10 µM, first compound 1 µM): 15% | viability, T/C (second compound 10 µM, first compound 3.16 µM): 19.1% | viability, T/C (second compound 10 µM, first compound 10 µM): 25.6%

Nc1ncn(C2CC(O)C(CO)S2)c(=O)n1 (stereo unspecified) + Cc1cncc(-c2nc(NCCc3c[nH]c4ccccc34)c3ncn(C(C)C)c3n2)c1
IC50 (second compound 0.1 µM): > 300 nM | IC50 (second compound 0.316 µM): > 300 nM | IC50 (second compound 1 µM): > 300 nM | IC50 (second compound 3.16 µM): > 300 nM | IC50 (second compound 10 µM): < 0.949 nM | viability, T/C (second compound 0.1 µM, first compound 0.000949 µM): 122% | viability, T/C (second compound 0.1 µM, first compound 0.003 µM): 113% | viability, T/C (second compound 0.1 µM, first compound 0.00949 µM): 122% | viability, T/C (second compound 0.1 µM, first compound 0.03 µM): 95.6% | viability, T/C (second compound 0.1 µM, first compound 0.0949 µM): 118% | viability, T/C (second compound 0.1 µM, first compound 0.3 µM): 126% | viability, T/C (second compound 0.316 µM, first compound 0.000949 µM): 113% | viability, T/C (second compound 0.316 µM, first compound 0.003 µM): 102% | viability, T/C (second compound 0.316 µM, first compound 0.00949 µM): 114% | viability, T/C (second compound 0.316 µM, first compound 0.03 µM): 99% | viability, T/C (second compound 0.316 µM, first compound 0.0949 µM): 129% | viability, T/C (second compound 0.316 µM, first compound 0.3 µM): 130% | viability, T/C (second compound 1 µM, first compound 0.000949 µM): 92.1% | viability, T/C (second compound 1 µM, first compound 0.003 µM): 134% | viability, T/C (second compound 1 µM, first compound 0.00949 µM): 103% | viability, T/C (second compound 1 µM, first compound 0.03 µM): 111% | viability, T/C (second compound 1 µM, first compound 0.0949 µM): 131% | viability, T/C (second compound 1 µM, first compound 0.3 µM): 126% | viability, T/C (second compound 3.16 µM, first compound 0.000949 µM): 113% | viability, T/C (second compound 3.16 µM, first compound 0.003 µM): 99.5% | viability, T/C (second compound 3.16 µM, first compound 0.00949 µM): 130% | viability, T/C (second compound 3.16 µM, first compound 0.03 µM): 98.2% | viability, T/C (second compound 3.16 µM, first compound 0.0949 µM): 94.9% | viability, T/C (second compound 3.16 µM, first compound 0.3 µM): 120% | viability, T/C (second compound 10 µM, first compound 0.000949 µM): 12.2% | viability, T/C (second compound 10 µM, first compound 0.003 µM): 16.9% | viability, T/C (second compound 10 µM, first compound 0.00949 µM): 9.06% | viability, T/C (second compound 10 µM, first compound 0.03 µM): 13.4% | viability, T/C (second compound 10 µM, first compound 0.0949 µM): 11.2% | viability, T/C (second compound 10 µM, first compound 0.3 µM): 10.7%

COc1cc(Nc2ncc3c(n2)-c2ccc(Cl)cc2C(c2c(F)cccc2OC)=NC3)ccc1C(=O)O
viability, T/C (compound 0.0316 µM): 101% and 74% and 71.8% | viability, T/C (compound 0.1 µM): 111% and 56% and 46% | viability, T/C (compound 0.316 µM): 68.3% and 32.7% and 27.7% | viability, T/C (compound 1 µM): 92% and 36% and 28.2% | viability, T/C (compound 3.16 µM): 92.5% and 38.2% and 27.3% | viability, T/C (compound 10 µM): 75.8% and 39.1% and 32.8%
